ChEMBL document CHEMBL5055672, “Design, Synthesis, Biological Evaluation, and Computational Studies of Novel Fluorinated Candidates as PI3K Inhibitors: Targeting Fluorophilic Binding Sites” (J Med Chem, 2021)

Columns and labels:
CCRF-CEM = experiment: Cytotoxicity against human CCRF-CEM cells assessed as growth inhibition at 10 uM after 48 hrs by sulforhodamine B assay; type: functional; details: read-out: GI
HOP-62 = experiment: Cytotoxicity against human HOP-62 cells assessed as growth inhibition at 10 uM after 48 hrs by sulforhodamine B assay; type: functional; details: read-out: GI
HOP-92 = experiment: Cytotoxicity against human HOP-92 cells assessed as growth inhibition at 10 uM after 48 hrs by sulforhodamine B assay; type: functional; details: read-out: GI
NCI-H522 = experiment: Cytotoxicity against human NCI-H522 cells assessed as growth inhibition at 10 uM after 48 hrs by sulforhodamine B assay; type: functional; details: read-out: GI
HCT-116 = experiment: Cytotoxicity against human HCT-116 cells assessed as growth inhibition at 10 uM after 48 hrs by sulforhodamine B assay; type: functional; details: read-out: GI
SF-268 = experiment: Cytotoxicity against human SF-268 cells assessed as growth inhibition at 10 uM after 48 hrs by sulforhodamine B assay; type: functional; details: read-out: GI
SF-295 = experiment: Cytotoxicity against human SF-295 cells assessed as growth inhibition at 10 uM after 48 hrs by sulforhodamine B assay; type: functional; details: read-out: GI
SF-539 = experiment: Cytotoxicity against human SF-539 cells assessed as growth inhibition at 10 uM after 48 hrs by sulforhodamine B assay; type: functional; details: read-out: GI
SNB-19 = experiment: Cytotoxicity against human SNB-19 cells assessed as growth inhibition at 10 uM after 48 hrs by sulforhodamine B assay; type: functional; details: read-out: GI
SNB-75 = experiment: Cytotoxicity against human SNB-75 cells assessed as growth inhibition at 10 uM after 48 hrs by sulforhodamine B assay; type: functional; details: read-out: GI
U-251 = experiment: Cytotoxicity against human U-251 cells assessed as growth inhibition at 10 uM after 48 hrs by sulforhodamine B assay; type: functional; details: read-out: GI
SK-MEL-2 = experiment: Cytotoxicity against human SK-MEL-2 cells assessed as growth inhibition at 10 uM after 48 hrs by sulforhodamine B assay; type: functional; details: read-out: GI
UACC-62 = experiment: Cytotoxicity against human UACC-62 cells assessed as growth inhibition at 10 uM after 48 hrs by sulforhodamine B assay; type: functional; details: read-out: GI
SK-OV-3 = experiment: Cytotoxicity against human SK-OV-3 cells assessed as growth inhibition at 10 uM after 48 hrs by sulforhodamine B assay; type: functional; details: read-out: GI
786-0 = experiment: Cytotoxicity against human 786-0 cells assessed as growth inhibition at 10 uM after 48 hrs by sulforhodamine B assay; type: functional; details: read-out: GI
A498 = experiment: Cytotoxicity against human A498 cells assessed as growth inhibition at 10 uM after 48 hrs by sulforhodamine B assay; type: functional; details: read-out: GI
ACHN = experiment: Cytotoxicity against human ACHN cells assessed as growth inhibition at 10 uM after 48 hrs by sulforhodamine B assay; type: functional; details: read-out: GI
CAKI-1 = experiment: Cytotoxicity against human CAKI-1 cells assessed as growth inhibition at 10 uM after 48 hrs by sulforhodamine B assay; type: functional; details: read-out: GI
RXF 393 = experiment: Cytotoxicity against human RXF 393 cells assessed as growth inhibition at 10 uM after 48 hrs by sulforhodamine B assay; type: functional; details: read-out: GI
MCF7 [1] = experiment: Cytotoxicity against human MCF7 cells assessed as growth inhibition at 10 uM after 48 hrs by sulforhodamine B assay; type: functional; details: read-out: GI
MDA-MB-231 = experiment: Cytotoxicity against human MDA-MB-231 cells assessed as growth inhibition at 10 uM after 48 hrs by sulforhodamine B assay; type: functional; details: read-out: GI
[2] = Cytotoxicity against human Hs 578T cells assessed as growth inhibition at 10 uM after 48 hrs by sulforhodamine B assay; type: functional; details: read-out: GI
MCF7 [3] = experiment: Antiproliferative activity against human MCF7 cells assessed as inhibition of cell growth incubated for 48 hrs by MTT assay; type: functional, cell-based; details: MCF7, 48 h
MCF-10A = experiment: Cytotoxicity against human MCF10A cells assessed as inhibition of cell growth incubated for 48 hrs by MTT assay; type: cell-based
[4] = Selectivity index, ratio of IC50 for human MCF-10A cells to IC50 for human MCF7 cells; type: toxicity; details: MCF-10A cells versus MCF7 cells, read-out: Ratio IC50
[5] = molecular target: Phosphatidylinositol 4,5-bisphosphate 3-kinase catalytic subunit alpha isoform (Homo sapiens, UniProt P42336); experiment: Inhibition of PI3Kalpha (unknown origin) using PIP2 as substrate preincubated for 10 mins followed by substrate addition and measured after 1 hr by ELISA
MCF7 [6] = experiment: Induction of cell cycle arrest in human MCF7 cells assessed as accumulation of cells at G phase at IC50 concentration by Propidium iodide staining based flow cytometric analysis (reference value: 1.76%); type: functional
MCF7 [7] = experiment: Induction of cell cycle arrest in human MCF7 cells assessed as accumulation of cells at G1 phase at IC50 concentration by Propidium iodide staining based flow cytometric analysis (reference value: 61.45%); type: functional
MCF7 [8] = experiment: Induction of cell cycle arrest in human MCF7 cells assessed as accumulation of cells at G2/M phase at IC50 concentration by Propidium iodide staining based flow cytometric analysis (reference value: 10.94%); type: functional
MCF7 [9] = experiment: Induction of cell cycle arrest in human MCF7 cells assessed as accumulation of cells at S phase at IC50 concentration by Propidium iodide staining based flow cytometric analysis (reference value: 27.61%); type: functional
MCF7 [10] = experiment: Induction of apoptosis in human MCF7 cells assessed as early apoptotic cells at 0.72 uM after 48 hrs by annexin V-FITC/propidium iodide staining based flow cytometric analysis (reference value: 0.36%); type: functional
MCF7 [11] = experiment: Induction of apoptosis in human MCF7 cells assessed as late apoptotic cells at 0.72 uM after 48 hrs by annexin V-FITC/propidium iodide staining based flow cytometric analysis (reference value: 0.14%); type: functional
MCF7 [12] = experiment: Induction of apoptosis in human MCF7 cells assessed as necrotic cells at 0.72 uM after 48 hrs by annexin V-FITC/propidium iodide staining based flow cytometric analysis (reference value: 1.26%); type: functional
[13] = molecular target: Phosphatidylinositol 4,5-bisphosphate 3-kinase catalytic subunit beta isoform (Homo sapiens, UniProt P42338); experiment: Inhibition of PI3Kbeta (unknown origin) using PIP2 as substrate preincubated for 10 mins followed by substrate addition and measured after 1 hr by ELISA
[14] = molecular target: T1, Phosphatidylinositol 4,5-bisphosphate 3-kinase catalytic subunit delta isoform (Homo sapiens, UniProt O00329); experiment: Inhibition of PI3Kdelta (unknown origin) using PIP2 as substrate preincubated for 10 mins followed by substrate addition and measured after 1 hr by ELISA
T1 sequence (O00329 whole entry): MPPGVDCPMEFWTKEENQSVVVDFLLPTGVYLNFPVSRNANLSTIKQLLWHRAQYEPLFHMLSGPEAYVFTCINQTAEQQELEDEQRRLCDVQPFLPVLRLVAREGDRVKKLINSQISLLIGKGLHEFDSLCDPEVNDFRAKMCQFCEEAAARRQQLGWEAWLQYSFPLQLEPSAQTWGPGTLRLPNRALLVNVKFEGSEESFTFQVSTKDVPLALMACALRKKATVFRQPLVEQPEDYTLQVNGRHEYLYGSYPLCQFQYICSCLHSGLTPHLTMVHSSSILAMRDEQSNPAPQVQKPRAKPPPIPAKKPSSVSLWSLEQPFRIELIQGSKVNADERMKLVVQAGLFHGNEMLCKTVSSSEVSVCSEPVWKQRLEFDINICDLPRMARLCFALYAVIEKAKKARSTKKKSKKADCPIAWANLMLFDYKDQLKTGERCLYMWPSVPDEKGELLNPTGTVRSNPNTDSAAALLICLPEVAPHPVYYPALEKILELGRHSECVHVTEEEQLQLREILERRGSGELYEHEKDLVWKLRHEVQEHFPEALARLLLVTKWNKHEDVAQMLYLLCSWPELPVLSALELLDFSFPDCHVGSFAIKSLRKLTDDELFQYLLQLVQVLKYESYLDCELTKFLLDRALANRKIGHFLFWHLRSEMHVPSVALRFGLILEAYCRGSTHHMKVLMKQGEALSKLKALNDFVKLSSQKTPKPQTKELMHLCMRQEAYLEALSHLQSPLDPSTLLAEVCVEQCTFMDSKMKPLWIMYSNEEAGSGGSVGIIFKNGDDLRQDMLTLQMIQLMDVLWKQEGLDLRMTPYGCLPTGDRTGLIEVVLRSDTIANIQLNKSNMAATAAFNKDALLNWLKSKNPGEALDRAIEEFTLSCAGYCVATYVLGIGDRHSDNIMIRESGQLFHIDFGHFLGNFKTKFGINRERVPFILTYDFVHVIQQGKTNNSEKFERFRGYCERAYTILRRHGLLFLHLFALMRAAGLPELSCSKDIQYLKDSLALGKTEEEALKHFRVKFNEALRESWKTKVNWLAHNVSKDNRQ

Chain of Phosphatidylinositol 4,5-bisphosphate 3-kinase catalytic subunit alpha isoform (P42336 whole entry, canonical isoform): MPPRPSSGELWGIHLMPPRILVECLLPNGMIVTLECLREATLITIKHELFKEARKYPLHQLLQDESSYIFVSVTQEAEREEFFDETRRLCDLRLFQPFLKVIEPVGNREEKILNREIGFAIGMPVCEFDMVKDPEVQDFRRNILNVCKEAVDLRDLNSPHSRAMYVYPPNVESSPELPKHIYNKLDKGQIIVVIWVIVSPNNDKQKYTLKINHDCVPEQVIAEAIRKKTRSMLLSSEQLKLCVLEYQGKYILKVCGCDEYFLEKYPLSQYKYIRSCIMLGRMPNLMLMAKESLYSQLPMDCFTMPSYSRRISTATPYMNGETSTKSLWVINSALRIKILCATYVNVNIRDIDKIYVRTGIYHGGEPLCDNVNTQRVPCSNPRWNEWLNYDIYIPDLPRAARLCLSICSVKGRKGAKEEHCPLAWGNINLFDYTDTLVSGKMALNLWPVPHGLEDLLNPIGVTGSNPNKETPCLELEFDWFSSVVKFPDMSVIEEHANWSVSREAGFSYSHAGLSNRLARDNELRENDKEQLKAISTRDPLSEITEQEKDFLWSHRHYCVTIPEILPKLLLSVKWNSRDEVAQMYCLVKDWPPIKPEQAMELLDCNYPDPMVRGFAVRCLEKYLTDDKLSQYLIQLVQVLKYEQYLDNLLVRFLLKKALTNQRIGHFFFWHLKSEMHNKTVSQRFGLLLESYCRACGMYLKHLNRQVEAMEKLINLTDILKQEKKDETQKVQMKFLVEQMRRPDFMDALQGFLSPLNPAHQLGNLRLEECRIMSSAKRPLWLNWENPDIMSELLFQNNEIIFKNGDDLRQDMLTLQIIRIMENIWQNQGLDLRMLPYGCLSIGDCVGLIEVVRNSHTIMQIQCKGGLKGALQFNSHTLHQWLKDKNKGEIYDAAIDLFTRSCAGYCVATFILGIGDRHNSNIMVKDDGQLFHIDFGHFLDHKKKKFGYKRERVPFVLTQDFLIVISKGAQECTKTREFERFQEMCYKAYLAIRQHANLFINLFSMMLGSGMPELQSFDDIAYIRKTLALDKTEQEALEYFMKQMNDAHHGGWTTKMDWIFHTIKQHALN
Chain of Phosphatidylinositol 4,5-bisphosphate 3-kinase catalytic subunit beta isoform (P42338 whole entry, canonical isoform): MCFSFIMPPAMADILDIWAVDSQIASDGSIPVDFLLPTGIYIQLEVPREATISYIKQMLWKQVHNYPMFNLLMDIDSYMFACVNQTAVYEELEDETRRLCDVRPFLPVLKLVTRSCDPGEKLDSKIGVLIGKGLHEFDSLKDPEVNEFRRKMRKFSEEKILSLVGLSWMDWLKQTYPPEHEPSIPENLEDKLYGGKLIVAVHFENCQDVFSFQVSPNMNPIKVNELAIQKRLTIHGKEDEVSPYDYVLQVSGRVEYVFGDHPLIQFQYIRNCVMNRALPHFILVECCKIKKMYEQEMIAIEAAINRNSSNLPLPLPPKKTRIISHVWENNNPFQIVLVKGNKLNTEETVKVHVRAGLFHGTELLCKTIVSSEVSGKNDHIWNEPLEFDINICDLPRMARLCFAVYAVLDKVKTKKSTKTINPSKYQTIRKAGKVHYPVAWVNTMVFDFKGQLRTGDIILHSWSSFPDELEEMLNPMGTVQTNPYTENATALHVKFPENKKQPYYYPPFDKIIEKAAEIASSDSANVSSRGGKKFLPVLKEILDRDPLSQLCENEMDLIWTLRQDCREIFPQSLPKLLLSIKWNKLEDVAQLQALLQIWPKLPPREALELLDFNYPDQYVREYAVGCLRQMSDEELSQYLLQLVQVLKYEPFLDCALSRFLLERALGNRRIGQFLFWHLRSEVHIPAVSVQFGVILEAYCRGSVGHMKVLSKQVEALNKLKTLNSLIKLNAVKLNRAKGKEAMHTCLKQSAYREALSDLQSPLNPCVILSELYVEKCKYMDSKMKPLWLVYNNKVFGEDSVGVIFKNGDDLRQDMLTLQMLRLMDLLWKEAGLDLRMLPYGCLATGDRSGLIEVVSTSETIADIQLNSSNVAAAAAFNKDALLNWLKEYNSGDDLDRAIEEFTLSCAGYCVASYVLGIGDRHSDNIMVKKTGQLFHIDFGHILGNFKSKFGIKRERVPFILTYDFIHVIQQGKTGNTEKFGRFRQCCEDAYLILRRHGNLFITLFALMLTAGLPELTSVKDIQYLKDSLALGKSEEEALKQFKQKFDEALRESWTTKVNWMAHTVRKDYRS

Structure (SMILES): COC(=O)/C=C1\S/C(=N\N=C\c2ccc(OS(=O)(=O)C(F)(F)C(F)(F)C(F)(F)C(F)(F)C(F)(F)C(F)(F)C(F)(F)C(F)(F)F)cc2)N(c2ccccc2)C1=O
- inhibition of growth at 10 µM (CCRF-CEM): 22.1%
- inhibition of growth at 10 µM (HOP-62): 27%
- inhibition of growth at 10 µM (HOP-92): 25.1%
- inhibition of growth at 10 µM (NCI-H522): 22.1%
- inhibition of growth at 10 µM (HCT-116): 10.5%
- inhibition of growth at 10 µM (SF-268): 19.3%
- inhibition of growth at 10 µM (SF-295): 22%
- inhibition of growth at 10 µM (SF-539): 12.1%
- inhibition of growth at 10 µM (SNB-19): 36.3%
- inhibition of growth at 10 µM (SNB-75): 37.8%
- inhibition of growth at 10 µM (U-251): 36.2%
- inhibition of growth at 10 µM (SK-MEL-2): 16.9%
- inhibition of growth at 10 µM (UACC-62): 13.5%
- inhibition of growth at 10 µM (SK-OV-3): 14.1%
- inhibition of growth at 10 µM (786-0): 26.6%
- inhibition of growth at 10 µM (A498): 12.9%
- inhibition of growth at 10 µM (ACHN): 11.6%
- inhibition of growth at 10 µM (CAKI-1): 20%
- inhibition of growth at 10 µM (RXF 393): 39.7%
- inhibition of growth at 10 µM (MCF7 [1]): 11.2%
- inhibition of growth at 10 µM (MDA-MB-231): 15.2%
- inhibition of growth at 10 µM [2]: 34.1%

Structure (SMILES): O=S(=O)(Oc1ccc(/C=N/N=c2\scc(-c3ccccc3)n2-c2ccccc2)cc1)C(F)(F)C(F)(F)C(F)(F)C(F)(F)F
- inhibition of growth at 10 µM (MCF7 [1]): 65.5%
- IC50 (MCF7 [3]): 0.72 µM
- IC50 (MCF-10A): 28.2 µM
- selectivity ratio [4]: 39.2
- IC50 [5]: 5.8 µM
- Activity (MCF7 [6]): 42.38%
- Activity (MCF7 [7]): 49.27%
- Activity (MCF7 [8]): 7.61%
- Activity (MCF7 [9]): 43.12%
- Activity (MCF7 [10]): 6.18%
- Activity (MCF7 [11]): 21.88%
- Activity (MCF7 [12]): 14.32%
- IC50 [13]: 2.3 µM
- IC50 [14]: 7.9 µM
